SMILES strings stand for the structures.

This is an account of results in patent US7271187B2, “Compositions and methods for promoting tissue regeneration” (priority 2000, dated 2007).

The subject of assay [1] is bone marrow cells. Put plainly: Nestin expression in bone marrow cells after systemic administration. The assay is classed as in vivo, rat. As to conditions: bone marrow harvested 3-7 days after systemic administration; vs non-treated rats. An excerpt: In some embodiments of the invention, cells, preferably bone marrow cells, can be transferred from a first animal treated according to methods of the invention to a site of chronic spinal cord injury in the first animal or in a second animal.

The subject of assay [2] is passaged astrocytes. Briefly: Highly enriched passaged astrocyte cultures, immunostaining. It is filed as cell-based, rat. As to conditions: astrocytes passaged 3 times; untreated controls at a significantly reduced level. The procedure:
The method of the invention is also exemplified by a third embodiment in which astrocytes are passaged 3 times prior to in vitro treatment with the compound and samples derived from the whole cortex were compared to samples enriched for tissue from the subventricular zone.
For some experiments, freshly dissociated cortical cells were plated in poly lysine coated T-75 flasks. Cells were fed twice weekly with DMEM+10% FBS. After reaching confluence, cells were removed from the T-75 flask with typsin/EDTA (Gibco), pelleted and media removed. The cell pellet was resuspended in DMEM+10% FBS and split 1 to 5 into new T-75 flasks. This process was repeated 2 more times. After reaching confluence on the fourth passage, cells were removed from the T-75 flask as describe above and plated on poly lysine coated 24 well cluster plates at a density of 1×10^5 cells per well. Cells were maintained in DMEM+10% FB S until they reached confluence at which point, the media was removed and replaced with NeuralBasal+B27 supplementsN-[4-[(4-fluorophenyl)sulfonyl]phenyl]acetamide was dissolved in 2 hydroxypropyl-β-cyclodextrin and added to cultures at final concentrations ranging from 100 μg/ml to 10 ng/ml. […]

The test system of assay [3] is compressive injuries to the spinal cords of rats. Put plainly: Compressive spinal cord injury, closure of cavities. The assay is classed as in vivo, rat. As to conditions: compound in a saline vehicle; vs untreated or saline treated rats. The text has this: In another study, cavities are induced by compressive injuries to the spinal cords of rats. In the study, rats are either untreated, treated with a saline vehicle, or treated with N-[4-[(4-fluorophenyl)sulfonyl]phenyl]acetamide in a saline vehicle.

Assay [4] relates to cortical neurons on aged astrocytes. Briefly: Growth of cortical neurons on aged astrocytes, count of tubulin-positive neurons. As to conditions: 1 week after treatment; for Number of Neurons, Well 2 / Number of Neurons, Well 4: control 74; for Number of Neurons, Well 3: control 89; for Number of Neurons, mean: control 82.50. It is filed as cell-based, Sprague Dawley rat. The procedure:
Astrocytes: postnatal day 2 (P2) Sprague Dawley rat cortices were aseptically dissected and trypsinized for 20 min at 37° C. in 0.25% trypsin-EDTA (GIBCO) and DNAse (0.2 mg/ml, Worthington). Enzyme action was stopped by the addition of soybean trypsin inhibitor (SIGMA)) and DNAse. Tissue was dissociated into single cell suspension by trituration with a 5 ml pipette, filtered though a 40 μm nylon filter and centrifuged at 500×g for 3 minutes. The pellet was taken up in medium (DMEM/10% fetal bovine serum) and cells were plated into poly-D-lysine (10 μg/ml, SIGMA) T75 flasks (one flask/cortex). After 23 days, astrocytes were trypsinized and replated at a density of 500,000 cells per well into poly-D-lysine-coated 24 well plates. Cultures were grown for an additional 20 days in order to let astrocytes mature. This maturation is known to make the astrocytes less permissive for neurite outgrowth (see G. M. Smith, et al., Developmental Biology, 138, 377-390 (1990), and G. M. Smith and J. Silver, Progress in Brain Research, Vol. 78, Chapt. 46, D. M. Cash and J. R. Sladek, ed., Elsevier, 1988.
Cortical neurons: mixed cortical cells were dissociated from embryonic day 18 Sprague Dawley rat embryos as described for astrocytes. In order to obtain more pure neuonal cultures, cells were subjected to a differential adhesion by pre-plating them on a non-coated bacterial dish (100 mm diameter) for 1 hour. Non-neuronal cells stick to this plate while neurons stay in the supernatant. Neurons were added to the aged astrocytes at a density of 10,000 cells/well in DEME/10% fetal bovine serum. One day later, the cultures were treated with 1 μg/ml and 10 μg/ml of N-4[4-[(4-fluorophenyl)sulfonyl]phenyl]acetamide. 1 week after treatment, cultures were fixed and immunostained with monoclonal anti-tubulin antibody (SIGMA, 1:800 diluted), followed by rhodamine-conjugated goat-anti-mouse secondary (1:100 dilution). Tubulin labels axons and dentrites.
Analysis: Tubulin-positive cell bodies with a process at least two cell diameters long were counted in 5 visual fields under 10× magnification with a Nikon Eclipse 2000 inverted microscope. Results were expressed as means of quadruplicate wells+/−SEM and are shown in Table I. Any patent application to which this application claims priority is incorporated by reference herein in its entirety.

In the case of `CC(=O)Nc1ccc(S(=O)(=O)c2ccc(F)cc2)cc1` [N-[4-[(4-fluorophenyl)sulfonyl]phenyl]acetamide], the “expression of Nestin in bone marrow cells” value in assay [1] is recorded as “increased expression of Nestin”. In addition, the “beta-tubulin positive cells with neuronal morphologies” value in assay [2] was “show beta-tubulin positive cells with neuronal morphologies”. Further, the “extent of closure of the cavity in the spinal cord” value in assay [3] is “most extensive closure of the cavity”. Moreover, the “Number of Neurons, Well 2” value in assay [4] (1 μg/ml) worked out at 103; in assay [4] (10 μg/ml), 129. For the same compound, the “Number of Neurons, Well 4” value in assay [4] (1 μg/ml) stood at 176; in assay [4] (10 μg/ml), 133. For the same compound, the “Number of Neurons, Well 3” value in assay [4] (1 μg/ml) is recorded as 171; in assay [4] (10 μg/ml) it was 173. Also, the “Number of Neurons, Well 1” value in assay [4] (1 μg/ml, control 93) is given as 132. Moreover, the “Number of Neurons, mean” value in assay [4] (1 μg/ml, mean of quadruplicate wells) stood at 145.50; in assay [4] (10 μg/ml, mean of wells), 145.00.
